The structures appear in SMILES notation.

One test has as its system TNFα production. Kind of test: Human Whole Blood test (LPS-stimulated TNFα production). Format: cell-based. The settings on record: inhibition of TNFα production in LPS-stimulated human whole blood. The protocol:
The ability of the compounds of this invention to inhibit TNFα production was also assessed in a human whole blood assay. Human whole blood secretes TNFα when stimulated with LPS. This property of blood forms the basis of an assay which is used as a secondary test for compounds which profile as active in the PBMC test.
Heparinised (10 units/ml) human blood was obtained from volunteers. 160 μl whole blood were added to 96 well round-bottom plates (Corning 25850). Compounds were solubilised and serially diluted in RPMI 1640 medium (Gibco) supplemented with 50 units/ml penicillin, 50 μg/ml streptomycin and 2 mM glutamine, as detailed above. 20 μl of each test concentration was added to appropriate wells (triplicate cultures), 20 μl of RPMI 1640 medium supplemented with antibiotics and glutamine was added to control wells. Plates were incubated for 30 minutes at 37° C. (humidified incubator), prior to addition of 20 μl LPS (final concentration 10 μg/ml). RPMI 1640 medium was added to control wells. Six “LPS alone” and four “medium alone” controls were included on each plate. A known TNFα synthesis/secretion inhibitor was included in each test. Plates were incubated for 6 hours at 37° C. (humidified incubator). Plates were centrifuged (2000 rpm for 10 minutes) and 100 μl plasma removed and stored at −70° C. (Corning 25850 plates). TNFα levels were measured by ELISA (see WO92/10190 and Current Protocols in Molecular Biology, vol 2 by Frederick M. Ausbel et al., John Wiley and Sons Inc.). The paired antibodies that were used in the ELIZA were obtained from R&D Systems (catalogue nos. MAB610 anti-human TNFA coating antibody, BAF210 biotinylated anti-human TNFα detect antibody).

Another test deals with T1, p38α (Homo sapiens, UniProt Q16539).
T1 construct: c-myc (N); 6His (N); made in house; host or cells: E. coli (PET vectors)
As to the kind of experiment: In vitro enzyme assay, p38α. Type of test: biochemical. The note with it: read-out: IC50 against p38α. The protocol:
(§1) The ability of compounds of the invention to inhibit the enzyme p38 kinase was assessed. Activity of test compounds against each of the p38α and p38β isoforms of the enzyme was determined. […]
(§2) Test compounds were solubilised in DMSO and 10 μl of a 1:10 diluted sample in ‘Kinase Buffer’ was added to a well in a Microtiter plate. […] The precipitated protein was phosphorylated by p38 kinase and test compounds were assessed for their ability to inhibit this phosphorylation. The plates were filtered using a Canberra Packard Unifilter and washed with 2% TCA, dried overnight and counted on a Top Count scintillation counter.
(§3) Test compounds were tested initially at a single dose and active compounds were retested to allow IC50 values to be determined.

The target in a further test is T2, p38β (Homo sapiens, UniProt Q15759).
T2 construct: Human recombinant p38α and p38β isoforms were produced as 5′ c-myc, 6His tagged proteins; fused on or other part: N-terminal c-myc and 6His tags
Kind of test: In vitro enzyme assay, p38β. Type of test: biochemical. The note with it: read-out: IC50 against p38β. How it is done: as §1, §2, §3

T1 sequence (Q16539 whole entry): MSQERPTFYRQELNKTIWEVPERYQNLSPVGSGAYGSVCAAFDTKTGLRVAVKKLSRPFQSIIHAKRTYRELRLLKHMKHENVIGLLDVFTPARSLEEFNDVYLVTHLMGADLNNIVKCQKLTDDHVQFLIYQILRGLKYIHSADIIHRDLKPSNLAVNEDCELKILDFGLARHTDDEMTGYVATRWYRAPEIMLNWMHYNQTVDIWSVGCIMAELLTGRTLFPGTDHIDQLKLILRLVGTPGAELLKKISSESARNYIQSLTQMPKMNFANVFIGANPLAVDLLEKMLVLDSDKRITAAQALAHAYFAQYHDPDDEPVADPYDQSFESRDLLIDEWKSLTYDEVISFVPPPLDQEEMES
T2 sequence (Q15759 whole entry, the tested form may be a part, canonical isoform): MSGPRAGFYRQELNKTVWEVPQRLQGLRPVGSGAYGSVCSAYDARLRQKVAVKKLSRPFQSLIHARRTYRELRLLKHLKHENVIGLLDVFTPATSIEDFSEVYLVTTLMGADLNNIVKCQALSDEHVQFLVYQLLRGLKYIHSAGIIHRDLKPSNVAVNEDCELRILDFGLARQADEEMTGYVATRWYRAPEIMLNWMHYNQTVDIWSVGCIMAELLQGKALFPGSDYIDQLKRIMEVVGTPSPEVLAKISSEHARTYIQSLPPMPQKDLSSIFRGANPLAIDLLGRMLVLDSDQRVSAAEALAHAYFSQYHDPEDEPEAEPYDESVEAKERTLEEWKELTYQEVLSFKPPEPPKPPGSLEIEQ

Consider `Cc1ccc(NC(=O)c2ccnc(N3CCOCC3)c2)cc1-n1cnc2ccc(N(C)CCCN(C)C)cc2c1=O` [6-[N-(3-dimethylaminopropyl)-N-methylamino]-3-[2-methyl-5-(2-morpholinopyrid-4-ylcarbonylamino)phenyl]-3,4-dihydroquinazolin-4-one], for which the values for the IC50 in the test on TNFα production and on p38α were approximately 2000 nM and approximately 200 nM, respectively.
For the molecule `CN(C)CCCN(C)c1ccc2ncn(-c3cccc(NC(=O)c4ccnc(N5CCOCC5)c4)c3)c(=O)c2c1` [6-[N-(3-dimethylaminopropyl)-N-methylamino]-3-[5-(2-morpholinopyrid-4-ylcarbonylamino)phenyl]-3,4-dihydroquinazolin-4-one], the IC50 on p38β was approximately 50 nM; in the test on TNFα production it was approximately 5000 nM.
Take `Cc1ccc(NC(=O)c2ccnc(N3CCOCC3)c2)cc1-n1cnc2c(N(C)CCCN(C)C)cccc2c1=O` [8-[-(3-dimethylaminopropyl)-N-methylamino]-3-[2-methyl-5-(2-morpholinopyrid-4-ylcarbonylamino)phenyl]-3,4-dihydroquinazolin-4-one]: the values for the half-inhibitory concentration (IC50) with TNFα production and on p38α were approximately 7000 nM and approximately 100 nM, respectively.

Source of the values: US7008945B1, “Amide derivatives” (AstraZeneca AB, priority 1999, dated 2006).
